Values of other authors in patent US20100028296A1, “Use of cytokine-derived peptides in treatment of pain and neurodegenerative disease” (priority 2005, published 2010).
Where no end group is shown, it is not given here.

How the values were obtained:
[1] = tested on: excitotoxic spinal cord injury; conditions: given 30 minutes following injury
[2] = tested on: dynorphin-induced, IL-1β-mediated mechanical allodynia; conditions: intrathecal; administered 30 minutes or 6 hours after induction of allodynia
[3] = native dimer, approximately 37 kDa
[4] = tested on: chronic constriction injury model of neuropathic pain; conditions: in vivo
[5] = tested on: immunomodulatory functions known for human IL-10; conditions: at generally different dosage levels

For “IL-10: anti-inflammatory cytokine, dimer of approximately 37 kDa in its native state”, the pathological pain behaviors [1] is listed as “decreased pathological pain behaviors”, the “onset of mechanical allodynia” value [2] is listed as “blocks the onset” and the “crossing of the intact blood brain barrier” value [3] is listed as “does not cross the intact blood brain barrier in appreciable amounts”.
For `O=C1CCC(N2C(=O)c3ccccc3C2=O)C(=O)N1` (stereo not drawn) [thalidomide], the mechanical allodynia [4] is listed as “reduces” and the thermal hyperalgesia [4] is listed as “reduces”.
In the case of “AYMTMKIRN [IT, C-terminal nonapeptide from human IL-10 protein]”, the “functional activities compared with intact IL-10” value [5] is listed as “shares some, but not all, of the functional activities of intact IL-10”.
